{"source": "paper PMC7358525", "about": "“Characterization of PF-6142, a Novel, Non-Catecholamine Dopamine Receptor D1 Agonist, in Murine and Nonhuman Primate Models of Dopaminergic Activation” (Frontiers in Pharmacology, 2020)", "key": {"[1]": {"test_system": "acetylcholine levels in the PFC of WT and D1 KO mice", "test": "Prefrontal cortex acetylcholine levels via microdialysis, WT and D1 KO mouse", "assay_type": "in vivo", "conditions": "10 mg/kg SC", "source_text": "Adult male Sprague-Dawley rats (280–360 g) were obtained from Charles-River Laboratories, Raleigh, NC and male C57BL/6J DRD1a WT and D1 DA receptor knockout mice (DRD1a-905781) were obtained from The Jackson Laboratories (Bar Harbor, ME). Animals were housed on a 12-h light/dark cycle with free access to food and water and allowed to acclimate for at least 5 d after arrival. Aseptic technique was used during the surgical procedure in order to prevent infection. On the day of the procedure animals were anesthetized with isoflurane (4%) and their heads shaved. The animals were then placed into a Kopf stereotaxic frame, the surgical area disinfected by swabbing with Provodine solution, and the area isolated with a sterile surgical drape. Anesthesia was maintained with isoflurane (2.5%–3%) delivered through a nose cone using a Univentor 400 anesthesia unit. Animals were given a 0.1 ml subcutaneous (s.c.) injection of Metacam (NSAID, meloxicam, 5 mg/ml, Boehringer Ingelheim) as a post-operative analgesic. Marcaine (bupivacaine, 0.5%, Hospira, Lake Forest, IL), a long acting local anesthetic, was administered s.c. at the surgical area to minimize pain and discomfort.\nA 1.5–2 cm incision was made along the midline of the skull, beginning from a point just behind the eyes and running posterior. The skin was retracted with hemostats and the skull was further exposed using blunt dissection with cotton swabs. Bleeding capillaries were cauterized, and the skull dried with a sterile gauze sponge.\nA microdialysis guide cannula [Bioanalytical Systems Inc (BAS), West Lafayette, IN, part # MD-2251] was placed into a guide holder on the stereotaxic frame and positioned over “Bregma”. The guide cannula was positioned over the PFC (A-P, +3.2 mm; M-L, +0.7 mm, left, relative to bregma) and the location marked on the skull. Using a 0.7 mm burr, a hole was made in the skull at the cannula position. […]\nFor conventional analysis, ACh was analyzed by high performance liquid chromatography (HPLC) utilizing a modification of the BAS ACh-choline assay kit (BAS part # MF-8910). […]"}, "[2]": {"test_system": "ketamine-induced working memory deficits", "test": "Spatial delayed response (SDR) task in the nonhuman primate", "assay_type": "in vivo, rhesus monkeys", "source_text": "This study was designed to test the hypothesis that PF-6142 would provide significant protection versus the ketamine-induced working memory deficits in nonhuman primates.\nRhesus monkeys were trained to stability on a variable SDR task in a sound-attenuated Wisconsin General Testing Apparatus ([Roberts et al., 2010]). Briefly, subjects observe while the investigator baiting one of two to seven wells with a highly preferred food reward and then covers all the wells with identical square plaques. An opaque screen is then lowered for one of five variable delays, which are pseudorandomized across trials within a session. Thus, delays are defined as 0–4 N, where “N” is a value that is animal dependent and ranges from 1 to 10 s depending upon the difficulty level of the task at which an animal reaches the criterion of stable performance. At the end of the delay period, the opaque screen is raised, and the animal must select the well that had been baited to obtain a reward. Each test session consists of 20 trials wherein both the baited well and delay length are pseudorandomized across trials. Before study initiation, all subjects were required to reach stability over a period of 10 consecutive test sessions, where stability was defined as an average of 65–75% correct. Stability was attained by varying the number of wells and the delay value for each animal. Subjects were originally trained on a two-well board with an N value of 1. […] Once stability was attained for a given number of wells and N value, that combination was kept constant throughout the course of the study ([Roberts et al., 2010]). The range of stable performance for the 10 subjects was two to five wells and an N value of 1–7 s (median, four-well testing board, N = 5 s). Data were transformed using logarithmic function [log(x+5)] to improve normality and analyzed using ANOVA.\nSubjects received pretreatment with vehicle (sterile saline solution) or PF-6142 (0.0015, 0.015, 0.15 mg/kg, s.c.) 4 h before cognitive testing. They then received an intramuscular injection of either vehicle (sterile saline) or ketamine (0.7–1.7 mg/kg; Fort Dodge Co.) 0.25 h before cognitive testing. […] Thus, for the present study, one monkey received 0.7 mg/kg, seven monkeys received 1.0 mg/kg, and two monkeys received 1.7 mg/kg of ketamine. The vehicle/PF-6142 and vehicle/ketamine treatments were assigned using a randomized Latin square design with a total of eight conditions. Except for the vehicle/vehicle condition, there was a minimum 2-week washout period between all acute challenges during which time animals were required to “restabilize” to baseline performance levels, which was defined as at least three consecutive testing sessions wherein cognitive performance ranged between 65% and 75% correct."}, "[3]": {"test_system": "human D1 receptor", "conditions": "stated in discussion, no data or reference printed; cited from earlier work"}}}
{"molecule": "Cc1cc(Oc2nccc3occc23)ccc1-c1c(C)ncc2nccn12", "note": "[PF-6142]", "values": [{"measurement": "PFC ACh levels vs vehicle (AUC 75-180 min)", "setting": "[1]; D1 KO mice", "value": "not in the KO group"}, {"measurement": "PFC ACh levels vs vehicle (AUC 75-180 min)", "setting": "[1]; WT mice", "value": "increased ACh levels"}, {"measurement": "percent correct on the SDR task after pretreatment + ketamine (range over doses)", "setting": "[2]; PF-6142 0.0015-0.15 mg/kg s.c. 4 h before testing", "value": "42.5–52.1%"}, {"measurement": "improvement of performance vs ketamine", "setting": "[2]; PF-6142 0.0015-0.15 mg/kg s.c., all doses", "value": "more than 10 % correct"}, {"measurement": "working memory performance under normal conditions (pretreatment followed by placebo)", "setting": "[2]; PF-6142 without ketamine", "value": "no effect on its own"}, {"measurement": "affinity", "setting": "[3]", "value": "moderate affinity"}]}
